US20130274338A1, “PHARMACEUTICAL COMPOSITIONS COMPRISING DGLA, 15-OHEPA, AND/OR 15-HETRE AND METHODS OF REDUCING SEBUM PRODUCTION USING SAME” (priority 2012, published 2013)

Tested on: P. acnes
Experiment: Agar dilution method, growth of P. acnes and MIC, combinations with a fatty acid spike
Assay type: cell-based, Propionibacterium acnes
Parameters: key to Growth Index Plate 1 / Growth Index Plate 2 / Growth Index Plate 3 / Growth Index Avg: +++: confluent growth (comparable to control); ++: less confluent growth; +: marked reduction in growth to multiple tiny, single colonies; −: no growth present
Protocol: Several compounds including fatty acids such as DGLA, 15-OHEPA, and 15-HETrE were tested to determine their capacity to inhibit the growth of P. acnes. In an exemplary method, an agar dilution method was used to determine the minimum inhibitory concentration (MIC) of each tested compound. Briefly, the agar dilution method involved preparing a series of concentrations of each compound (e.g., nicotinamide, benzoyl peroxide, adapalene, metronidazole, DGLA, 15-OHEPA, and 15-HETrE) in a Reinforced Clostridial Agar (RCA) media that facilitates growth of P. acnes under anaerobic conditions. An inoculum of P. acnes was prepared by incubation of P. acnes for approximately seven days at 35-37° C. to achieve a ≧1.0 OD600 inoculum of P. acnes in RCM broth. A portion of this inoculum was then added to the surface of each plate as a 10 μL spot and incubated at 35-37° C. for 72 hours or more. Growth of P. acnes was then observed and compared to control plates in which no compound has been added, and positive inhibition plates prepared with erythromycin. […] The growth of P. acnes in the presence of nicotinamide, benzoyl peroxide, adapalene, metronidazole, DGLA, 15-OHEPA, and 15-HETrE was determined with varying concentrations of the compound (see, Table 2). Next, the MIC was determined as the concentration at which a marked reduction (+) occurs in the appearance of growth on the test plate (as per Clinical and Laboratory Standards Institute M11-A7).
The compounds tested singly in Example 1 were tested in combination with one another to determine the capacity of the combination to inhibit the growth of P. acnes. In an exemplary method, the MIC was determined for each of the combination as described in Example 1. Briefly, test combinations included DGLA with nicotinamide, benzoyl peroxide, adapalene, or metronidazole; 15-HETrE with nicotinamide, benzoyl peroxide, adapalene, or metronidazole; and 15-OHEPA with nicotinamide, benzoyl peroxide, adapalene, or metronidazole. The tables below show the growth of P. acnes in the presence of 0.4 or 1.0 mg/mL DGLA with varying concentrations of nicotinamide, benzoyl peroxide, adapalene, or metronidazole (Table 3); the growth of P. acnes in the presence of 0.01 or 0.05 mg/mL 15-HETrE with varying concentrations of nicotinamide, benzoyl peroxide, adapalene, or metronidazole (Table 5); and the growth of P. acnes in the presence of 0.5 or 0.1 mg/mL 15-OHEPA with varying concentrations of nicotinamide, benzoyl peroxide, adapalene, or metronidazole (Table 7).

[1] = compound at 0.2 mg/mL + 0.01 mg/mL 15-HETrE
[2] = compound at 0.2 mg/mL + 0.05 mg/mL 15-HETrE
[3] = compound at 0.2 mg/mL + 0.05 mg/mL 15-OHEPA
[4] = compound at 0.2 mg/mL + 0.1 mg/mL 15-OHEPA
[5] = compound at 0.2 mg/mL + 0.4 mg/mL dGLA
[6] = compound at 0.2 mg/mL + 1.0 mg/mL dGLA
[7] = compound at 0.4 mg/mL + 0.01 mg/mL 15-HETrE
[8] = compound at 0.4 mg/mL + 0.05 mg/mL 15-HETrE
[9] = compound at 0.4 mg/mL + 0.05 mg/mL 15-OHEPA
[10] = compound at 0.4 mg/mL + 0.1 mg/mL 15-OHEPA
[11] = compound at 0.4 mg/mL + 0.4 mg/mL dGLA
[12] = compound at 0.4 mg/mL + 1.0 mg/mL dGLA
[13] = compound at 0.6 mg/mL + 0.01 mg/mL 15-HETrE
[14] = compound at 0.6 mg/mL + 0.05 mg/mL 15-HETrE
[15] = compound at 0.6 mg/mL + 0.05 mg/mL 15-OHEPA
[16] = compound at 0.6 mg/mL + 0.1 mg/mL 15-OHEPA
[17] = compound at 0.6 mg/mL + 0.4 mg/mL dGLA
[18] = compound at 0.6 mg/mL + 1.0 mg/mL dGLA
[19] = compound at 0.7 mg/mL + 0.01 mg/mL 15-HETrE
[20] = compound at 0.7 mg/mL + 0.05 mg/mL 15-HETrE
[21] = compound at 0.7 mg/mL + 0.05 mg/mL 15-OHEPA
[22] = compound at 0.7 mg/mL + 0.1 mg/mL 15-OHEPA
[23] = compound at 0.8 mg/mL + 0.01 mg/mL 15-HETrE
[24] = compound at 0.8 mg/mL + 0.05 mg/mL 15-HETrE
[25] = compound at 0.8 mg/mL + 0.05 mg/mL 15-OHEPA
[26] = compound at 0.8 mg/mL + 0.1 mg/mL 15-OHEPA
[27] = compound at 0.8 mg/mL + 0.4 mg/mL dGLA
[28] = compound at 0.8 mg/mL + 1.0 mg/mL dGLA
[29] = compound at 1.0 mg/mL + 0.4 mg/mL dGLA
[30] = compound at 1.0 mg/mL + 1.0 mg/mL dGLA

With COc1ccc(-c2ccc3cc(C(=O)O)ccc3c2)cc1C12CC3CC(CC(C3)C1)C2 [Adapalene, 6-[3-(1-adamantyl)-4-methoxyphenyl]-2-naphthoic acid] the “Growth Index Avg” value [1] was “+++”, the “Growth Index Plate 1” value [1] was “+++” and the “Growth Index Plate 2” value [1] was “+++”. The “Growth Index Plate 3” value [1] was “+++”, the “Growth Index Avg” value [2] was “−” and the “Growth Index Plate 1” value [2] was “−”. For the same compound, the “Growth Index Plate 2” value [2] was “−”, the “Growth Index Plate 3” value [2] was “−” and the “Growth Index Avg” value [3] was “+++”. For the same compound, the “Growth Index Plate 1” value [3] was “+++”, the “Growth Index Plate 2” value [3] was “+++” and the “Growth Index Plate 3” value [3] was “+++”. For the same compound, the “Growth Index Avg” value [4] was “−”, the “Growth Index Plate 1” value [4] was “−” and the “Growth Index Plate 2” value [4] was “−”. The “Growth Index Plate 3” value [4] was “−”, the “Growth Index Avg” value [5] was “+++” and the “Growth Index Plate 1” value [5] was “+++”. The “Growth Index Plate 2” value [5] was “+++”, the “Growth Index Plate 3” value [5] was “+++” and the “Growth Index Avg” value [6] was “+++”. The “Growth Index Plate 1” value [6] was “+++”, the “Growth Index Plate 2” value [6] was “+++” and the “Growth Index Plate 3” value [6] was “+++”. For the same compound, the “Growth Index Avg” value [7] was “+++”, the “Growth Index Plate 1” value [7] was “+++” and the “Growth Index Plate 2” value [7] was “+++”. The “Growth Index Plate 3” value [7] was “+++”, the “Growth Index Avg” value [8] was “−” and the “Growth Index Plate 1” value [8] was “−”. The “Growth Index Plate 2” value [8] was “−”, the “Growth Index Plate 3” value [8] was “−” and the “Growth Index Avg” value [9] was “+++”. The “Growth Index Plate 1” value [9] was “+++”, the “Growth Index Plate 2” value [9] was “+++” and the “Growth Index Plate 3” value [9] was “+++”. The “Growth Index Avg” value [10] was “−”, the “Growth Index Plate 1” value [10] was “−” and the “Growth Index Plate 2” value [10] was “−”. For the same compound, the “Growth Index Plate 3” value [10] was “−”, the “Growth Index Avg” value [11] was “+++” and the “Growth Index Plate 1” value [11] was “+++”. For the same compound, the “Growth Index Plate 2” value [11] was “+++”, the “Growth Index Plate 3” value [11] was “+++” and the “Growth Index Avg” value [12] was “+++”. The “Growth Index Plate 1” value [12] was “+++”, the “Growth Index Plate 2” value [12] was “+++” and the “Growth Index Plate 3” value [12] was “+++”. For the same compound, the “Growth Index Avg” value [13] was “++”, the “Growth Index Plate 1” value [13] was “++” and the “Growth Index Plate 2” value [13] was “++”. For the same compound, the “Growth Index Plate 3” value [13] was “++”, the “Growth Index Avg” value [14] was “−” and the “Growth Index Plate 1” value [14] was “−”. For the same compound, the “Growth Index Plate 2” value [14] was “−”, the “Growth Index Plate 3” value [14] was “−” and the “Growth Index Avg” value [15] was “+++”. The “Growth Index Plate 1” value [15] was “++”, the “Growth Index Plate 2” value [15] was “+++” and the “Growth Index Plate 3” value [15] was “+++”. The “Growth Index Avg” value [16] was “−”, the “Growth Index Plate 1” value [16] was “−” and the “Growth Index Plate 2” value [16] was “−”. For the same compound, the “Growth Index Plate 3” value [16] was “−”, the “Growth Index Avg” value [17] was “+++” and the “Growth Index Plate 1” value [17] was “+++”. The “Growth Index Plate 2” value [17] was “+++”, the “Growth Index Plate 3” value [17] was “+++” and the “Growth Index Avg” value [18] was “+++”. For the same compound, the “Growth Index Plate 1” value [18] was “+++”, the “Growth Index Plate 2” value [18] was “+++” and the “Growth Index Plate 3” value [18] was “+++”. For the same compound, the “Growth Index Avg” value [19] was “+”, the “Growth Index Plate 1” value [19] was “+” and the “Growth Index Plate 2” value [19] was “+”. The “Growth Index Plate 3” value [19] was “+”, the “Growth Index Avg” value [20] was “−” and the “Growth Index Plate 1” value [20] was “−”. For the same compound, the “Growth Index Plate 2” value [20] was “−”, the “Growth Index Plate 3” value [20] was “−” and the “Growth Index Avg” value [21] was “++”. The “Growth Index Plate 1” value [21] was “++”, the “Growth Index Plate 2” value [21] was “++” and the “Growth Index Plate 3” value [21] was “++”. The “Growth Index Avg” value [22] was “−”, the “Growth Index Plate 1” value [22] was “−” and the “Growth Index Plate 2” value [22] was “−”. For the same compound, the “Growth Index Plate 3” value [22] was “−”, the “Growth Index Avg” value [23] was “−” and the “Growth Index Plate 1” value [23] was “+”. For the same compound, the “Growth Index Plate 2” value [23] was “−”, the “Growth Index Plate 3” value [23] was “−” and the “Growth Index Avg” value [24] was “−”. The “Growth Index Plate 1” value [24] was “−”, the “Growth Index Plate 2” value [24] was “−” and the “Growth Index Plate 3” value [24] was “−”. For the same compound, the “Growth Index Avg” value [25] was “++”, the “Growth Index Plate 1” value [25] was “++” and the “Growth Index Plate 2” value [25] was “++”. For the same compound, the “Growth Index Plate 3” value [25] was “+”, the “Growth Index Avg” value [26] was “−” and the “Growth Index Plate 1” value [26] was “−”. For the same compound, the “Growth Index Plate 2” value [26] was “−”, the “Growth Index Plate 3” value [26] was “−” and the “Growth Index Avg” value [27] was “+++”. For the same compound, the “Growth Index Plate 1” value [27] was “+++”, the “Growth Index Plate 2” value [27] was “+++” and the “Growth Index Plate 3” value [27] was “+++”. The “Growth Index Avg” value [28] was “+++”, the “Growth Index Plate 1” value [28] was “+++” and the “Growth Index Plate 2” value [28] was “+++”. For the same compound, the “Growth Index Plate 3” value [28] was “+++”, the “Growth Index Avg” value [29] was “+++” and the “Growth Index Plate 1” value [29] was “+++”. For the same compound, the “Growth Index Plate 2” value [29] was “+++”, the “Growth Index Plate 3” value [29] was “+++” and the “Growth Index Avg” value [30] was “+++”. For the same compound, the “Growth Index Plate 1” value [30] was “+++”, the “Growth Index Plate 2” value [30] was “+++” and the “Growth Index Plate 3” value [30] was “+++”. The “growth of P. Acnes in combination with 15-OHEPA, compared with 15 OHEPA used alone” value (in combination with 15-OHEPA) was “did not reduce the growth” and the “growth of P. Acnes in combination with DGLA, compared with DGLA used alone” value (in combination with DGLA) was “did not reduce the growth”.
